The target in the data set is PRNP. Nature of the data set: mouse, dose not given. The conditions noted are these: ASO.

HELM strings list units from the 5' end as sugar, base in round brackets, then linkage (d deoxyribose, r ribose, m 2'-O-methyl, p phosphodiester). Strings are as the collection lists them; they lack the last nucleoside at the 3' end of the tested compound. [moe] = 2'-O-(2-methoxyethyl) (MOE); [sp] = phosphorothioate linkage; [m5C] = 5-methylcytosine

The substance “RNA1{[moe](T)[sp].[moe](A)p.[moe]([m5C])p.[moe](T)p.[moe](T)[sp].d(G)[sp].d(T)[sp].d([m5C])[sp].d(A)[sp].d(G)[sp].d(T)[sp].d(T)[sp].d(T)[sp].d(T)[sp].d(T)[sp].[moe]([m5C])p.[moe]([m5C])p.[moe]([m5C])[sp].[moe]([m5C])}$$$$ (last 3' nucleoside missing)” returned a 3 h FOB score of 4.5 score 0-7.
Under “RNA1{[moe](T)[sp].[moe](G)p.[moe](T)p.[moe](T)p.[moe](T)[sp].d(G)[sp].d(T)[sp].d(T)[sp].d(T)[sp].d([m5C])[sp].d(T)[sp].d(T)[sp].d([m5C])[sp].d([m5C])[sp].d(A)[sp].[moe](T)p.[moe](T)p.[moe](G)[sp].[moe]([m5C])}$$$$ (last 3' nucleoside missing)” stands 1 score 0-7; under “RNA1{[moe](A)[sp].[moe](A)p.[moe](A)p.[moe]([m5C])p.[moe](G)[sp].d(T)[sp].d([m5C])[sp].d([m5C])[sp].d(A)[sp].d(T)[sp].d(T)[sp].d(T)[sp].d(T)[sp].d([m5C])[sp].d(T)[sp].[moe](G)p.[moe](T)p.[moe](G)[sp].[moe]([m5C])}$$$$ (last 3' nucleoside missing)”, 0 score 0-7; under “RNA1{[moe](G)[sp].[moe]([m5C])p.[moe](T)p.[moe](A)p.[moe](T)[sp].d([m5C])[sp].d(T)[sp].d(T)[sp].d(T)[sp].d([m5C])[sp].d(T)[sp].d(A)[sp].d(T)[sp].d(T)[sp].d(T)[sp].[moe](G)p.[moe](T)p.[moe](G)[sp].[moe](T)}$$$$ (last 3' nucleoside missing)”, 1 score 0-7.
“RNA1{[moe]([m5C])[sp].[moe](T)p.[moe](A)p.d(T)[sp].d(G)[sp].d(T)[sp].d(T)[sp].d(T)[sp].d(T)[sp].d([m5C])[sp].d([m5C])[sp].d(A)[sp].d(G)[sp].[moe](T)p.[moe](G)p.[moe]([m5C])p.[moe]([m5C])p.[moe]([m5C])[sp].[moe](A)}$$$$ (last 3' nucleoside missing)” came in with a 3 h FOB score of 0.25 score 0-7.
Turning to “RNA1{[moe](G)[sp].[moe](T)p.[moe](T)p.[moe]([m5C])p.[moe](A)[sp].d([m5C])[sp].d(T)[sp].d(G)[sp].d(T)[sp].d(G)[sp].d(A)[sp].d(A)[sp].d(T)[sp].d(A)[sp].d(T)[sp].[moe](G)p.[moe](T)p.[moe]([m5C])[sp].[moe]([m5C])}$$$$ (last 3' nucleoside missing)”, the 3 h FOB score was determined as 4.25 score 0-7.
The substance “RNA1{[moe]([m5C])[sp].[moe](A)p.[moe](T)p.[moe](T)p.[moe](T)[sp].d(G)[sp].d(A)[sp].d(T)[sp].d(T)[sp].d(T)[sp].d([m5C])[sp].d(A)[sp].d(A)[sp].d(G)[sp].d(T)[sp].[moe]([m5C])p.[moe]([m5C])p.[moe]([m5C])[sp].[moe](A)}$$$$ (last 3' nucleoside missing)” registered a 3 h FOB score of 3 score 0-7.
Substance “RNA1{[moe](G)[sp].[moe](G)p.[moe](T)p.[moe](T)p.[moe](T)[sp].d(T)[sp].d(T)[sp].d(G)[sp].d(A)[sp].d([m5C])[sp].d(A)[sp].d(A)[sp].d(T)[sp].d(T)[sp].d(A)[sp].[moe](T)p.[moe](G)p.[moe](A)[sp].[moe](G)}$$$$ (last 3' nucleoside missing)” came in with a 3 h FOB score of 5 score 0-7.
“RNA1{[moe](A)[sp].[moe]([m5C])p.[moe]([m5C])p.[moe](A)p.[moe](T)[sp].d(A)[sp].d(T)[sp].d(A)[sp].d([m5C])[sp].d([m5C])[sp].d(A)[sp].d(T)[sp].d(G)[sp].d(T)[sp].d(A)[sp].[moe]([m5C])p.[moe](A)p.[moe](G)[sp].[moe](T)}$$$$ (last 3' nucleoside missing)” yielded a 3 h FOB score of 4.75 score 0-7.
On to “RNA1{[moe](T)[sp].[moe]([m5C])p.[moe](A)p.[moe](G)p.[moe](T)[sp].d(T)[sp].d(T)[sp].d(T)[sp].d(T)[sp].d([m5C])[sp].d([m5C])[sp].d([m5C])[sp].d([m5C])[sp].[moe](A)p.[moe]([m5C])p.[moe](A)[sp].[moe](T)}$$$$ (last 3' nucleoside missing)”, for which the 3 h FOB score was 0 score 0-7.
The substance “RNA1{[moe]([m5C])[sp].[moe](T)p.[moe](T)p.[moe](T)p.[moe]([m5C])[sp].d([m5C])[sp].d(T)[sp].d(G)[sp].d(A)[sp].d(T)[sp].d(A)[sp].d(G)[sp].d(T)[sp].d(T)[sp].d([m5C])[sp].[moe](A)p.[moe]([m5C])p.[moe](T)[sp].[moe](G)}$$$$ (last 3' nucleoside missing)” displayed a 3 h FOB score of 2.5 score 0-7.
Consider “RNA1{[moe](G)[sp].[moe]([m5C])p.[moe]([m5C])p.[moe](A)p.d([m5C])[sp].d(A)[sp].d(T)[sp].d(A)[sp].d(T)[sp].d(A)[sp].d(G)[sp].d(G)[sp].d(G)[sp].d(T)[sp].[moe]([m5C])p.[moe]([m5C])p.[moe](T)p.[moe](T)[sp].[moe](T)}$$$$ (last 3' nucleoside missing)”, for which the 3 h FOB score was 3.75 score 0-7.
Turning to “RNA1{[moe]([m5C])[sp].[moe](G)p.[moe](T)p.[moe](T)p.[moe](G)[sp].d(T)[sp].d(T)[sp].d(G)[sp].d(A)[sp].d(T)[sp].d(T)[sp].d(T)[sp].d(T)[sp].d(T)[sp].d([m5C])[sp].[moe]([m5C])p.[moe](A)p.[moe](G)[sp].[moe](A)}$$$$ (last 3' nucleoside missing)”, the 3 h FOB score turned out to be 1.75 score 0-7.
Take “RNA1{[moe](T)[sp].[moe](G)p.[moe](T)p.[moe](G)p.[moe](A)[sp].d([m5C])[sp].d(A)[sp].d(A)[sp].d(T)[sp].d(A)[sp].d(T)[sp].d(T)[sp].d(T)[sp].d(A)[sp].d([m5C])[sp].[moe](T)p.[moe]([m5C])p.[moe](T)[sp].[moe](T)}$$$$ (last 3' nucleoside missing)”: the 3 h FOB score turned out to be 2.25 score 0-7.
The substance “RNA1{[moe](T)[sp].[moe]([m5C])p.[moe](A)p.[moe](T)p.[moe](A)[sp].d(T)[sp].d(T)[sp].d(T)[sp].d([m5C])[sp].d(T)[sp].d(G)[sp].d(T)[sp].d([m5C])[sp].d(A)[sp].d(T)[sp].[moe]([m5C])p.[moe](T)p.[moe]([m5C])[sp].[moe]([m5C])}$$$$ (last 3' nucleoside missing)” had a 3 h FOB score of 3 score 0-7.
Under “RNA1{[moe](T)[sp].[moe]([m5C])p.[moe](T)p.[moe](A)p.[moe](T)[sp].d(G)[sp].d(T)[sp].d(T)[sp].d(T)[sp].d(T)[sp].d([m5C])[sp].d([m5C])[sp].d(A)[sp].[moe](G)p.[moe](T)p.[moe](G)[sp].[moe]([m5C])}$$$$ (last 3' nucleoside missing)” stands 0 score 0-7; under “RNA1{[moe](G)[sp].[moe](T)[sp].[moe]([m5C])p.[moe](A)p.[moe](G)p.[moe](T)p.[moe](T)p.d(T)[sp].d(T)[sp].d(T)[sp].d([m5C])[sp].d([m5C])[sp].d([m5C])[sp].d([m5C])[sp].d(A)[sp].d([m5C])[sp].d(A)[sp].[moe](T)p.[moe](A)}$$$$ (last 3' nucleoside missing)”, 0 score 0-7; under “RNA1{[moe](G)[sp].[moe](T)p.[moe]([m5C])p.[moe]([m5C])p.[moe](A)[sp].d(T)[sp].d(T)[sp].d(T)[sp].d(T)[sp].d([m5C])[sp].d(T)[sp].d(G)[sp].d(T)[sp].d(G)[sp].d([m5C])[sp].[moe](T)p.[moe](T)p.[moe](T)[sp].[moe](T)}$$$$ (last 3' nucleoside missing)”, 4.5 score 0-7.
“RNA1{[moe](G)[sp].[moe](T)p.[moe]([m5C])p.[moe](A)p.[moe](G)p.[moe](T)p.d(T)[sp].d(T)[sp].d(T)[sp].d(T)[sp].d([m5C])[sp].d([m5C])[sp].d([m5C])[sp].d([m5C])[sp].d(A)[sp].d([m5C])[sp].[moe](A)p.[moe](T)[sp].[moe](A)}$$$$ (last 3' nucleoside missing)” registered a 3 h FOB score of 0 score 0-7.
For the substance “RNA1{[moe](G)[sp].[moe]([m5C])p.[moe]([m5C])p.[moe](A)p.[moe]([m5C])[sp].d(A)[sp].d(T)[sp].d(A)[sp].d(T)[sp].d(A)[sp].d(G)[sp].d(G)[sp].d(G)[sp].d(T)[sp].d([m5C])[sp].[moe]([m5C])p.[moe](T)p.[moe](T)[sp].[moe](T)}$$$$ (last 3' nucleoside missing)”, the 3 h FOB score was determined as 1.5 score 0-7.
In the case of “RNA1{[moe](T)[sp].[moe]([m5C])p.[moe](A)p.[moe](G)p.[moe](T)[sp].d(G)[sp].d(T)[sp].d(T)[sp].d(G)[sp].d(T)[sp].d(G)[sp].d(A)[sp].d([m5C])[sp].d(A)[sp].d(A)[sp].[moe](T)p.[moe](A)p.[moe](T)[sp].[moe](T)}$$$$ (last 3' nucleoside missing)” it was 4.25 score 0-7; in that of “RNA1{[moe](G)[sp].[moe](T)p.[moe](T)p.[moe](G)p.[moe](T)[sp].d(G)[sp].d(A)[sp].d([m5C])[sp].d(A)[sp].d(A)[sp].d(T)[sp].d(A)[sp].d(T)[sp].d(T)[sp].d(T)[sp].[moe](A)p.[moe]([m5C])p.[moe](T)[sp].[moe]([m5C])}$$$$ (last 3' nucleoside missing)”, 0 score 0-7.
In the case of “RNA1{[moe]([m5C])[sp].[moe](T)p.[moe]([m5C])p.[moe](A)p.[moe](G)[sp].d(G)[sp].d(T)[sp].d([m5C])[sp].d(T)[sp].d(A)[sp].d([m5C])[sp].d(T)[sp].d([m5C])[sp].d(T)[sp].d(A)[sp].[moe](T)p.[moe](G)p.[moe](T)[sp].[moe](T)}$$$$ (last 3' nucleoside missing)” it was 0 score 0-7.
In the case of “RNA1{[moe](T)[sp].[moe]([m5C])p.[moe](A)p.[moe](G)p.[moe](T)p.d(T)[sp].d(T)[sp].d(T)[sp].d(T)[sp].d([m5C])[sp].d([m5C])[sp].d([m5C])[sp].d([m5C])[sp].d(A)[sp].[moe]([m5C])p.[moe](A)p.[moe](T)[sp].[moe](A)}$$$$ (last 3' nucleoside missing)” it was 0 score 0-7.
“RNA1{[moe]([m5C])[sp].[moe](T)p.[moe](G)p.[moe](T)p.[moe]([m5C])[sp].d(A)[sp].d(T)[sp].d([m5C])[sp].d(T)[sp].d([m5C])[sp].d([m5C])[sp].d(A)[sp].d(A)[sp].d([m5C])[sp].d([m5C])[sp].[moe](T)p.[moe](A)p.[moe](A)[sp].[moe](G)}$$$$ (last 3' nucleoside missing)” returned a 3 h FOB score of 1 score 0-7.
